Experimental data taken from patent US20110039721A1, “METHOD FOR PREDICTION ABOUT CARCINOGENICITY OF SUBSTANCE IN RODENT” (Chemicals Evaluation and Research Institute, priority 2007, published 2011).

How the values were obtained:
[1] = classification of the substance (M+/M−); cited from earlier work
[2] = test system: mRNA expressed from the genes (A) to (D) in rat liver; assay: Behavior of genes (mRNA expression level, oligo-DNA microarray) in rat liver after 28-day oral administration; type: in vivo; conditions: mRNA vs vehicle control group
Procedure, shortened: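 Male F344 SPF rats, 5 weeks old, four per group, dosed by oral gavage once daily for 28 days with test chemical or matched-volume solvent. Liver total RNA profiled on oligo-DNA microarray. Change ≥1.5-fold or ≤1/1.5 versus vehicle counted as significant if its direction matched that seen with other carcinogens.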

rodent = conditions: classification of the substance (C+/C−); cited from earlier work
liver = conditions: classification of the substance (Cr+/Cr−); cited from earlier work
[3] = gene group (A), Unigene No. Rn.167075
[4] = gene group (C), Unigene No. Rn.120914

For `COc1ccc(O)c(C(C)(C)C)c1` [TS023, Butylated hydroxyanisole], the “Mutagenicity by Ames test” value [1] is given as “M−”, the “Behavior of gene caused by administration of chemical substance, Gene No. 4846” value ([2]; gene group (A), Unigene No. Rn.144554) is given as “−” and the “Behavior of gene caused by administration of chemical substance, Gene No. 2026” value [2, 3] is given as “−”. The “Behavior of gene caused by administration of chemical substance, Gene No. 4218” value [2, 3] was “−”, the “Behavior of gene caused by administration of chemical substance, Gene No. 6182” value ([2]; gene group (A), Unigene No. Rn.5834) was “−” and the “Behavior of gene caused by administration of chemical substance, Gene No. 5600” value ([2]; gene group (A), Unigene No. Rn.9836) was “−”. The “Behavior of gene caused by administration of chemical substance, Gene No. 1494” value ([2]; gene group (B), Unigene No. Rn.1430) was “−”, the “Behavior of gene caused by administration of chemical substance, Gene No. 2045” value ([2]; gene group (B), Unigene No. Rn.19329) was “−” and the “Behavior of gene caused by administration of chemical substance, Gene No. 2203” value ([2]; gene group (B), Unigene No. Rn.21240) was “+”. For the same compound, the “Behavior of gene caused by administration of chemical substance, Gene No. 533” value ([2]; gene group (C), Unigene No. Rn.106184) was “−”, the “Behavior of gene caused by administration of chemical substance, Gene No. 725” value ([2]; gene group (C), Unigene No. Rn.108075) was “+” and the “Behavior of gene caused by administration of chemical substance, Gene No. 1163” value ([2]; gene group (C), Unigene No. Rn.11766) was “+”. For the same compound, the “Behavior of gene caused by administration of chemical substance, Gene No. 4973” value ([2]; gene group (C), Unigene No. Rn.118529) was “+”, the “Behavior of gene caused by administration of chemical substance, Gene No. 4095” value ([2]; gene group (C), Unigene No. Rn.119024) was “+” and the “Behavior of gene caused by administration of chemical substance, Gene No. 1334” value [2, 4] was “−”. For the same compound, the “Behavior of gene caused by administration of chemical substance, Gene No. 6620” value [2, 4] was “−”, the “Behavior of gene caused by administration of chemical substance, Gene No. 6303” value ([2]; gene group (C), Unigene No. Rn.123063) was “−” and the “Behavior of gene caused by administration of chemical substance, Gene No. 5878” value ([2]; gene group (C), Unigene No. Rn.143213) was “−”. The “Behavior of gene caused by administration of chemical substance, Gene No. 1131” value ([2]; gene group (C), Unigene No. Rn.144946) was “−”, the “Behavior of gene caused by administration of chemical substance, Gene No. 1562” value ([2]; gene group (C), Unigene No. Rn.14744) was “−” and the “Behavior of gene caused by administration of chemical substance, Gene No. 1741” value ([2]; gene group (C), Unigene No. Rn.1647) was “−”. For the same compound, the “Behavior of gene caused by administration of chemical substance, Gene No. 893” value ([2]; gene group (C), Unigene No. Rn.164817) was “−”, the “Behavior of gene caused by administration of chemical substance, Gene No. 6026” value ([2]; gene group (C), Unigene No. Rn.167685) was “−” and the “Behavior of gene caused by administration of chemical substance, Gene No. 154” value ([2]; gene group (C), Unigene No. Rn.185941) was “+”. The “Behavior of gene caused by administration of chemical substance, Gene No. 1993” value ([2]; gene group (C), Unigene No. Rn.18728) was “−”, the “Behavior of gene caused by administration of chemical substance, Gene No. 813” value ([2]; gene group (C), Unigene No. Rn.201760) was “−” and the “Behavior of gene caused by administration of chemical substance, Gene No. 2494” value ([2]; gene group (C), Unigene No. Rn.23969) was “−”. The “Behavior of gene caused by administration of chemical substance, Gene No. 2546” value ([2]; gene group (C), Unigene No. Rn.24561) was “−”, the “Behavior of gene caused by administration of chemical substance, Gene No. 3776” value ([2]; gene group (C), Unigene No. Rn.43232) was “−” and the “Behavior of gene caused by administration of chemical substance, Gene No. 3929” value ([2]; gene group (C), Unigene No. Rn.4620) was “−”. For the same compound, the “Behavior of gene caused by administration of chemical substance, Gene No. 1119” value ([2]; gene group (C), Unigene No. Rn.9757) was “−”, the “Behavior of gene caused by administration of chemical substance, Gene No. 6742” value ([2]; gene group (C), Unigene No. Rn.9779) was “−” and the “Behavior of gene caused by administration of chemical substance, Gene No. 5634” value ([2]; gene group (C), Unigene No. Rn.9862) was “−”. The “Behavior of gene caused by administration of chemical substance, Gene No. 5726” value ([2]; gene group (D), Unigene No. Rn.9939) was “−”, the Carcinogenicity (rodent) was “C+” and the Liver carcinogenicity (liver) was “Cr−”.
